Experiment in data set [1]: not given
The source holds these as a separate data set.

[2] abbreviates: females, feces collected in the fourth week of the in vivo study, label = diet group, LOD 0.1 µg/kg.
The mark [3] stands for this setting: males, feces collected in the fourth week of the in vivo study, label = diet group, LOD 0.1 µg/kg.

“And” between values parts separate entries of the source, which are not always exact repeats. Identical values can stand only once. Like-named read-outs stand apart in the source and are kept apart here.

On to `C[C@@H]1Cc2c(Cl)cc(C(=O)N[C@@H](Cc3ccccc3)C(=O)O)c(O)c2C(=O)O1` [OTA, ochratoxin A], for which the “Concentration of AFB1 in rat feces” value is “<LOD” under setting [2] and “<LOD” under setting [3]. For the same compound, the “Concentration of OTA in rat feces” value amounted to 933 ± 512 µg mycotoxin/kg dry feces in data set [1] (setting [2]) and 1729 ± 712 µg mycotoxin/kg dry feces in data set [1] (setting [3]).

As for aflatoxin B1 [AFB1], the “Concentration of AFB1 in rat feces” value (rat, in vivo) is 52 ± 61 µg mycotoxin/kg dry feces and 91 ± 77 µg mycotoxin/kg dry feces. In addition, the “Concentration of OTA in rat feces” value in data set [1] (rat, in vivo) is reported as “<LOD”.

Values taken from article PMC11821233, “Impact of Bioactive Ingredients on the Fecal Excretion of Aflatoxin B1 and Ochratoxin A in Wistar Rats” (Molecules, 2025).
